According to PubChem BioAssay AID248 (DTP/NCI, 2004):
Where “and” joins values, the source holds several entries; their conditions need not be identical. Equal values may be shown once. Inconclusive results and toxic doses are left out. Rule as the data show it: active = T/C of 150% or more; inactive = T/C below 125%.

System: L1210 leukemia ip in BDF1 mice, survival T/C
Assay: NCI In Vivo Anticancer Drug Screen. Data for tumor model L1210 Leukemia (intraperitoneal) in B6D2F1 (BDF1) mice
Details: endpoint: mean survival time, higher = longer survival
Method in brief: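 Tumor was transplanted into mice, which were then dosed with test compound or vehicle alone. Survival was recorded for each group, and the treated figure was expressed relative to the control figure.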

[1] = dose: 200.0 mg/kg/injection, schedule: Q04DX003 (ip), vehicle: saline with Tween-80
[2] = dose: 100.0 mg/kg/injection, schedule: Q04DX003 (ip), vehicle: saline with Tween-80
[3] = dose: 50.0 mg/kg/injection, schedule: Q01DX009 (ip), vehicle: saline
[4] = dose: 100.0 mg/kg/injection, schedule: Q04DX002 (ip), vehicle: saline with Tween-80

Measured: T/C

ClCCN(CCCl)c1ccc(C=Nc2ccc(/C=C\c3ccnc4ccccc34)cc2)cc1
inactive: dose: 100.0 mg/kg/injection, schedule: Q01DX001 (ip), vehicle: other 96 % of control | dose: 200.0 mg/kg/injection, schedule: Q01DX001 (ip), vehicle: other 94 % of control | dose: 400.0 mg/kg/injection, schedule: Q01DX001 (ip), vehicle: other 94 % of control

C(=N/N=C(N/N=C/c1ccccc1)N/N=C/c1ccccc1)/c1ccccc1
inactive: dose: 15.0 mg/kg/injection, schedule: Q01DX Z (ip), vehicle: carboxymethylcellulose (CMC) 95 % of control | dose: 30.0 mg/kg/injection, schedule: Q01DX Z (ip), vehicle: carboxymethylcellulose (CMC) 95 % of control | dose: 60.0 mg/kg/injection, schedule: Q01DX Z (ip), vehicle: carboxymethylcellulose (CMC) 92 % of control | dose: 120.0 mg/kg/injection, schedule: Q01DX Z (ip), vehicle: carboxymethylcellulose (CMC) 92 % of control | dose: 188.0 mg/kg/injection, schedule: Q01DX Z (oral), vehicle: carboxymethylcellulose (CMC) 95 % of control | dose: 375.0 mg/kg/injection, schedule: Q01DX Z (oral), vehicle: carboxymethylcellulose (CMC) 105 % of control | dose: 750.0 mg/kg/injection, schedule: Q01DX Z (oral), vehicle: carboxymethylcellulose (CMC) 110 % of control | dose: 1500.0 mg/kg/injection, schedule: Q01DX Z (oral), vehicle: carboxymethylcellulose (CMC) 100 % of control

O=c1o[nH]c(-c2ccccc2)c1-c1ccccc1
inactive: dose: 1.56 mg/kg/injection, schedule: Q04DX003 (ip), vehicle: saline 98 % of control | dose: 3.12 mg/kg/injection, schedule: Q04DX003 (ip), vehicle: saline 102 % of control | dose: 6.25 mg/kg/injection, schedule: Q04DX003 (ip), vehicle: saline 102 % of control | dose: 12.5 mg/kg/injection, schedule: Q04DX003 (ip), vehicle: saline 94 % of control | [1] 93 % of control

O=C(O)/C=C/c1ccc(/C=C/C(=O)O)cc1
inactive: dose: 100.0 mg/kg/injection, schedule: Q01DX009 (ip), vehicle: saline with Tween-80 95 % of control | [2] 98 % of control | dose: 200.0 mg/kg/injection, schedule: Q01DX009 (ip), vehicle: saline with Tween-80 88 % of control | [1] 96 % of control | dose: 400.0 mg/kg/injection, schedule: Q01DX009 (ip), vehicle: saline with Tween-80 103 % of control | dose: 400.0 mg/kg/injection, schedule: Q04DX003 (ip), vehicle: saline with Tween-80 95 % of control

CN=C(N)Nc1ccc(C(=O)Oc2ccc([N+](=O)[O-])cc2)cc1
inactive: dose: 25.0 mg/kg/injection, schedule: Q01DX009 (ip), vehicle: water 112 % of control | dose: 50.0 mg/kg/injection, schedule: Q01DX009 (ip), vehicle: water 102 % of control

Cc1ccc2nc(-c3cc(Br)ccc3O)c(-c3cc(Br)ccc3O)nc2c1
inactive: dose: 100.0 mg/kg/injection, schedule: Q01DX009 (ip), vehicle: Klucel (hydroxypropylcellulose) (HPC) 97 % of control | dose: 100.0 mg/kg/injection, schedule: Q04DX003 (ip), vehicle: Klucel (hydroxypropylcellulose) (HPC) 96 % of control | dose: 200.0 mg/kg/injection, schedule: Q01DX009 (ip), vehicle: Klucel (hydroxypropylcellulose) (HPC) 100 % of control | dose: 200.0 mg/kg/injection, schedule: Q04DX003 (ip), vehicle: Klucel (hydroxypropylcellulose) (HPC) 101 % of control | dose: 400.0 mg/kg/injection, schedule: Q01DX009 (ip), vehicle: Klucel (hydroxypropylcellulose) (HPC) 89 % of control | dose: 400.0 mg/kg/injection, schedule: Q04DX003 (ip), vehicle: Klucel (hydroxypropylcellulose) (HPC) 101 % of control

O=[N+]([O-])c1cccc(S(=O)(=O)O)c1
inactive: [3] 93 % of control | dose: 50.0 mg/kg/injection, schedule: Q04DX003 (ip), vehicle: saline 97 % of control | dose: 100.0 mg/kg/injection, schedule: Q01DX009 (ip), vehicle: saline 87 % of control | dose: 100.0 mg/kg/injection, schedule: Q04DX003 (ip), vehicle: saline 96 % of control and 100 % of control | dose: 200.0 mg/kg/injection, schedule: Q01DX009 (ip), vehicle: saline 93 % of control | dose: 200.0 mg/kg/injection, schedule: Q04DX003 (ip), vehicle: saline 100 % of control and 102 % of control | dose: 400.0 mg/kg/injection, schedule: Q04DX003 (ip), vehicle: saline 90 % of control

O=C(O)c1cc([N+](=O)[O-])cc([N+](=O)[O-])c1O
inactive: [4] 113 % of control | dose: 200.0 mg/kg/injection, schedule: Q04DX002 (ip), vehicle: saline with Tween-80 104 % of control

O=[N+]([O-])c1sc2ccccc2c1O
inactive: dose: 12.5 mg/kg/injection, schedule: Q01DX009 (ip), vehicle: saline with Tween-80 99 % of control | dose: 25.0 mg/kg/injection, schedule: Q01DX009 (ip), vehicle: saline with Tween-80 99 % of control

CC(=O)OC(CC(O)(C(F)(F)F)C(F)(F)F)C(C)(C)C (stereo not given)
inactive: dose: 25.0 mg/kg/injection, schedule: Q01DX009 (ip), vehicle: saline 104 % of control | [3] 102 % of control | [2] 98 % of control

CCOc1ccccc1C=C(C#N)C#N
inactive: [4] 100 % of control
